Source: article PMC12571071, “Preventing neuropathy and improving anticancer chemotherapy with a carbazole-based compound” (Science Advances, 2025)

Tests used:
[1] = tested on: DRG explants; experiment: Mouse embryonic 3D DRG explants: axonal degeneration and myelination (MBP/TUBB3); type: cell-based; conditions: 72 h
Procedure: Embryonic DRG 3D explants were prepared from E13.5 mouse embryos and seeded at one explant/1.9 cm^2 on acid-treated, Matrigel-coated glass coverslips ([64], [65]). Explants were cultured at 37°C under 5% CO2 and high saturated in humidity. From DIV 0 to DIV 3, cultures were maintained in C-medium supplemented with 10% FBS, 1× GlutaMAX, D-glucose (4 g/liter), 2.5S nerve growth factor (NGF; 50 ng/ml), and 1% penicillin/streptomycin. From DIV 3 to DIV 7, neurobasal medium supplemented with 1× B27, 1× GlutaMAX, D-glucose (4 g/liter), 2.5S NGF (50 ng/ml), and 1% penicillin/streptomycin was used to promote axon development. From DIV 7 onward, differentiation medium [C-medium supplemented with 5 μM forskolin, ascorbic acid (50 μg/ml), and heparin (25 μg/ml)] was used to support glial cell maturation and myelination, with medium changes occurring every 2 days.
DRGs were fixed with 10% formalin for 20 min at R.T., washed with PBS, and permeabilized for 10 min with PBS–0.1% Triton X-100. Blocking was performed using a solution of 3% bovine serum albumin (BSA), 0.1% glycine, and 5% goat preimmune serum in PBS for 2 hours at R.T. DRGs were then washed in PBS and incubated overnight at 4°C with of anti-TUBB3 (1 μg/ml) and anti-MBP (1 μg/ml). After PBS washes, secondary antibodies (goat anti-mouse Alexa Fluor 488, 1:1000, and goat anti-rabbit Alexa Fluor 647, 1:1000) were applied for 1 hour at R.T. Explants were mounted with ProLong Gold antifade reagent with 4′,6-diamidino-2-phenylindole (DAPI).
Images of random fields of DRG explants, fixed in 4% formaldehyde and immunostained for TUBB3 and MBP, were captured with consistent acquisition times across samples, using a Zeiss AxioImager M2 microscope, equipped with a Hamamatsu Orca R2 camera. Image analysis was performed using Fiji software. The images were thresholded using the default global autothreshold method. For each field, MBP^+ segments were counted and normalized to the TUBB3^+ area.

[2] = tested on: rat embryonic DRG neurons; experiment: Primary rat sensory neuron/Schwann cell culture exposed to Cis (myelination); type: cell-based; conditions: Cis 10 μg/ml; Carba1 tested at 1, 5, 10 μM
Procedure: These experiments, conducted by Neuro-Sys company (www.neuro-sys.com/) involved primary SNs and SCs cultured as previously described ([67]). On DIV 19, cultures were pretreated with Carba1 (1 to 10 μM) for 1 hour before exposure to Cis (10 μg/ml) for 24 hours in presence of Carba1. On DIV 20, the medium containing Cis was replaced with fresh medium and Carba1 for another 24 hours, ending the culture on DIV 21. Cells were fixed with ethanol/acetic acid (95%/5%) for 5 min, permeabilized, and blocked with PBS containing 0.1% saponin and 10% FBS. Cells were incubated with monoclonal anti-MBP (1:1000) and polyclonal anti-neurofilament (1:500) antibodies for 2 hours, followed by CF 488 A goat anti-mouse (1:400, Sigma-Aldrich) and Alexa Fluor 568 goat anti-rabbit (1:400, Molecular Probe) for 1 hour at R.T. Hoechst was used to stain nuclei.
Thirty images per well were acquired at ×20 magnification using ImageXpress (Molecular Devices) with identical acquisition settings, and analysis was automated with MetaXpress software. Key parameters measured included total neurite length (NF; in micrometers), total neurons (NF^+ cells), and myelination (MBP-NF overlap, in square micrometers).

[3] = tested on: HeLa cells; experiment: NAD(P)H autofluorescence imaging in live HeLa cells; type: cell-based, human; conditions: 12 μM, 24 hours
Procedure: HeLa cells were seeded in four-chamber Labtek plates at 10,000 cells per well. After 48 hours, cells were preincubated with or without 12 μM Carba1 for 2 hours before addition of FK866 (5 and 10 nM). Drugs were added to phenol red–free DMEM medium, supplemented with 10% FBS 1% penicillin/streptomycin. After 24 hours of drug incubation, cells were imaged using a confocal microscope (LSM 710, Zeiss) with a two-photon excitation at 700 nm (Chameleon Vision Laser, Coherent) and a 40×/1.2 water-immersion objective. Detection was performed in single-photon mode using an avalanche photodiode detector (ConfoCor 3). NAD(P)H signal intensity was quantified as the mean signal per cell using ImageJ and normalized to the cell area.

[4] = target: NAMPT (Homo sapiens, UniProt P43490); experiment: AS-MS binding assay, NAMPT; conditions: 10 μM compound, 3 μM NAMPT
Procedure: (§1) To this end, Carba1 or FK866 (positive control of NAMPT binding) was first incubated with NAMPT or carbonic anhydrase (CA; negative control). Protein-ligand complexes were separated from the unbound compounds by size exclusion chromatography (SEC). To quantify the protein-bound fraction, the complexes were then dissociated using reverse-phase chromatography, and the compounds were analyzed and quantified by mass spectrometry.
(§2) AS-MS was used to assess compound binding to NAMPT. AS-MS was performed by Edelris SAS (www.edelris.com/), which has developed the commercial AS-MS service “EDEN platform,” based on ([71]). Conditions consisted of protein (NAMPT and CA) at 3 μM and compounds (Carba1 and FK866) at 10 μM dissolved in corporate buffer.

[5] = tested on: carbonic anhydrase (CA); experiment: AS-MS binding assay, carbonic anhydrase (negative control); conditions: 10 μM compound, 3 μM carbonic anhydrase
Procedure: as §1, with “spectrometry. By comparing the amounts of compound before (preSEC) and after (postSEC) SEC in the presence of CA or NAMPT, we assessed their ability to selectively bind to NAMPT.” for “spectrometry.”
as §2

[6] = tested on: adult mouse DRG neurons; experiment: Axonal degeneration index in dissociated adult mouse DRG neurons; conditions: 72 h
Procedure: After 4 days in vitro (DIV), at least 30% of medium was changed, and 10 μM AraC (cytosine β-D-arabino furanoside) was added to suppress nonneuronal growth. […] Neurons were fixed with 4% paraformaldehyde (PFA), washed with PBS, permeabilized with PBS–0.01% Triton X-100 for 15 min, and blocked with PBS–10% FBS for 1 hour before being stained overnight at 4°C with neurofilament antibody. Following PBS washes, secondary antibody (goat anti-chicken Alexa Fluor 488) was applied for 2 hours at room temperature (R.T.). Following additional PBS washes, coverslips were mounted with Fluoromount-G.
Images of random fields of dissociated adult DRG neurons, immunostained with antineurofilament or anti-TUBB3 antibodies, were captured using a 20× objective lens (Olympus IX81) and a Sensicam QE monochrome camera (Cooke Corporation). Degeneration masks were generated on the basis of the method described by Gerdts et al. ([66]). Axonal degeneration was quantified by measuring the total axonal area and fragmented axonal area in the same field, using degeneration masks as shown in fig. […] Images were processed in Fiji using global autothresholding, binarization, and the particle analyzer module to detect fragments (20 to 10,000 pixels), as previously described ([17]). The degeneration index was calculated as the ratio of fragmented axonal area to total axonal area.

Sequence of NAMPT (P43490 whole entry, species assumed): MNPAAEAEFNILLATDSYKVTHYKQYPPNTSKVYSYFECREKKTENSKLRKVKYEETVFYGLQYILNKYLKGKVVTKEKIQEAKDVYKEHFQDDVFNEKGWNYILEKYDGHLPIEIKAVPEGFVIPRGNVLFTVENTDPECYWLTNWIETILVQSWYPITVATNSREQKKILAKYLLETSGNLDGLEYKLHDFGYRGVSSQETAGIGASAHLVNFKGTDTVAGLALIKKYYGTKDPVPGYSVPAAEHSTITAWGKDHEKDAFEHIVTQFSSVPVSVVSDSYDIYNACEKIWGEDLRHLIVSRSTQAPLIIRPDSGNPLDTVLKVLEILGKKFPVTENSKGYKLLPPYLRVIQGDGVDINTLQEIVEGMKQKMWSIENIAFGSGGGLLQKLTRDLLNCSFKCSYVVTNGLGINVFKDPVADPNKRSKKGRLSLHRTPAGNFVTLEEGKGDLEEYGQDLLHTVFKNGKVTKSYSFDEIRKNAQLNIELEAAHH

SMILES: Cc1cc(-n2cccc2)c(C)c2c1[nH]c1ccc(Cl)cc12 [Compound 1]
- fragmented axons in DRG explants under PTX ([1]; 12 μM Carba1 with 500 nM PTX): reduced number of fragmented axons
- myelin staining, Carba1 combined with PTX vs PTX alone ([1]; 12 μM Carba1 with 500 nM PTX): substantially improved
- MBP staining (axonal myelination), agent alone ([1]; Carba1 12 μM or PTX 500 nM): had no effect
- concentration of maximal protective effect against Cis-induced demyelination [2]: 5 µM
- increase in NAD(P)H production [3]: about 30%
- binding to NAMPT (AS-MS) [4]: directly binds to NAMPT
- binding to CA (AS-MS) [5]: neither FK866 nor Carba1 was found to bind CA
- protection against PTX-induced axonal degeneration ([6]; 12 μM Carba1 cotreatment with 50 nM PTX): prevented neuronal degeneration
- protection against Bort-induced neuronal fragmentation ([6]; 12 μM Carba1 cotreatment with 100 nM Bort): prevent neuronal fragmentation
- protection against Cis-induced neuronal fragmentation ([6]; 12 μM Carba1 cotreatment with 10 μM Cis): prevent neuronal fragmentation
- axonal fragmentation / degeneration, agent alone ([6]; DIV 12 neurons, Carba1 12 μM, PTX 50 nM, Cis 10 μM, Bort 100 nM): did not show significant effects on neurite fragmentation
